Assay results reported in publication PMC11822212, “High-throughput screening identifies Aurora kinase B as a critical therapeutic target for Merkel cell carcinoma” (Nature Communications, 2025).
Where “and” joins values, the source holds several entries; their conditions need not be identical. Equal entries are not always repeated. Structures can show the parent of a compound that is named as a salt. Where two headings read alike, the source gives them in different places.

What was measured:
MCC13 cells (VN-MCC) = assay: qHTS cell viability (CellTiter-Glo, 72 h; primary and follow-up small molecule screen); assay type: cell-based, human
MCC26 cells (VN-MCC) = assay: as above; assay type: cell-based, human
UISO cells (VN-MCC) = assay: as above; assay type: cell-based, human
WAGA cells (VP-MCC) = assay: as above; assay type: cell-based, human
MKL-1 cells (VP-MCC) = assay: as above; assay type: cell-based, human
MKL-2 cells (VP-MCC) = assay: as above; assay type: cell-based, human
HACAT cells = assay: qHTS cell viability (CellTiter-Glo, 72 h; primary screen), control cell line; assay type: cell-based, human
HEK293T cells = assay: as above; assay type: cell-based, human
NIH-3T3 cells = assay: as above; assay type: cell-based, mouse
CRL-7250 cells = assay: as above; assay type: cell-based
[1] = tested on: MCC cell lines (WAGA, MKL-1, MKL-2, MCC13, MCC26, UISO); assay: qHTS cell viability, all six MCC cell lines as a group (mean AUC, MCC.avg); assay type: cell-based, human
[2] = tested on: VP-MCC cell lines (WAGA, MKL-1, MKL-2); assay: qHTS cell viability, VP-MCC cell lines as a group (mean AUC, VP.MCC.avg); assay type: cell-based, human
[3] = tested on: VN-MCC cell lines (MCC13, MCC26, UISO); assay: qHTS cell viability, VN-MCC cell lines as a group (mean AUC, VN.MCC.avg); assay type: cell-based, human
[4] = tested on: control cell lines (HACAT, HEK293T, CRL-7250, NIH-3T3); assay: qHTS cell viability, control cell lines as a group (mean AUC, Control.avg); assay type: cell-based
[5] = tested on: six MCC cell lines and four control cell lines; assay: qHTS cell viability, all 10 cell lines screened; assay type: cell-based
[6] = NPC library, qHTS dose-response AUC, MCC13
[7] = NPC library, qHTS dose-response AUC, UISO
[8] = NPC library, qHTS dose-response AUC, WAGA
[9] = NPC library, qHTS dose-response AUC, MKL1
[10] = NPC library, qHTS dose-response AUC, MKL2
[11] = NPC library, qHTS dose-response AUC, HACAT control
[12] = NPC library; qHTS dose-response AUC, HEK293T control
[13] = NPC library, qHTS dose-response AUC, NIH3T3 control
[14] = NPC library, qHTS dose-response AUC, CRL7250 control
[15] = NPC library, mean AUC of six MCC cell lines
[16] = NPC library, mean AUC of VP-MCC cell lines
[17] = NPC library, therapeutic window: Control avg AUC minus VP-MCC avg AUC
[18] = NPC library, mean AUC of VN-MCC cell lines
[19] = NPC library, therapeutic window: Control avg AUC minus VN-MCC avg AUC
[20] = NPC library, mean AUC of control cell lines
[21] = NPC library, therapeutic window: Control avg AUC minus MCC avg AUC
[22] = MIPE library, 11-point DRC, sheet S2E
[23] = MIPE library, 11-point DRC, control cell line, sheet S2E

COc1cc(CCN)c(OC)cc1Br.Cl
MCC13_AUC (MCC13 cells (VN-MCC)): 402.391 | MCC26_AUC (MCC26 cells (VN-MCC)): 407.575 | UISO_AUC (UISO cells (VN-MCC)): 386.993 | WAGA_AUC (WAGA cells (VP-MCC)): 421.438 and 421.439 | MKL1_AUC (MKL-1 cells (VP-MCC)): 396.289 | MKL2_AUC (MKL-2 cells (VP-MCC)): 390.615 | HACAT_AUC (HACAT cells): 486.493 | HEK293T_AUC (HEK293T cells): 422.838 | NIH3T3_AUC (NIH-3T3 cells): 468.152 | CRL7250_AUC (CRL-7250 cells): 439.439 | MCC_Avg_AUC [1]: 400.883 | Control-VP-MCC [2]: 51.4501 | VP-MCC_Avg_AUC [2]: 402.781 | Control-VN-MCC [3]: 55.2444 | VN-MCC_Avg_AUC [3]: 398.986 | Control_Avg_AUC [4]: 454.231 | Control-MCC [5]: 53.3472

OCCN1CCN(CCCN2c3ccccc3Sc3ccc(C(F)(F)F)cc32)CC1 [Fluphenazine]
MCC13_AUC (MCC13 cells (VN-MCC); [6]): 444.309 | MCC26_AUC (MCC26 cells (VN-MCC); NPC library; qHTS dose-response AUC, MCC26): 425.402 | UISO_AUC (UISO cells (VN-MCC); [7]): 423.342 | WAGA_AUC (WAGA cells (VP-MCC); [8]): 435.377 | MKL1_AUC (MKL-1 cells (VP-MCC); [9]): 435.034 | MKL2_AUC (MKL-2 cells (VP-MCC); [10]): 399.652 | HACAT_AUC (HACAT cells; [11]): 491.426 | HEK293T_AUC (HEK293T cells; [12]): 438.571 | NIH3T3_AUC (NIH-3T3 cells; [13]): 476.772 | CRL7250_AUC (CRL-7250 cells; [14]): 486.675 | MCC_Avg_AUC [1, 15]: 427.186 | VP-MCC_Avg_AUC [2, 16]: 423.354 | Control-VP-MCC [2, 17]: 50.0066 | VN-MCC_Avg_AUC [3, 18]: 431.018 | Control-VN-MCC [3, 19]: 42.343 | Control_Avg_AUC [4, 20]: 473.361 | Control-MCC [5, 21]: 46.1748

O=C(CCCCCCC(=O)Nc1ccccc1)NO [Suberoylanilide hydroxamic acid]
MCC13_AUC (MCC13 cells (VN-MCC); [22]): 429.995 | MCC26_AUC (MCC26 cells (VN-MCC); [22]): 457.523 | UISO_AUC (UISO cells (VN-MCC); [22]): 422.155 | WAGA_AUC (WAGA cells (VP-MCC); [22]): 347.247 | MKL1_AUC (MKL-1 cells (VP-MCC); [22]): 374.242 | MKL2_AUC (MKL-2 cells (VP-MCC); [22]): 344.522 | HACAT_AUC (HACAT cells; [23]): 451.394 | HEK293T_AUC (HEK293T cells; [23]): 400.579 | NIH3T3_AUC (NIH-3T3 cells; [23]): 416.277 | CRL7250_AUC (CRL-7250 cells; [23]): 429.882 | MCC_Avg_AUC ([1]; MIPE library, mean AUC of six MCC cell lines, sheet S2E): 395.947 | Control-VP-MCC ([2]; MIPE library, Control AUC minus VP-MCC AUC (therapeutic window), sheet S2E): 69.1958 | VP-MCC_Avg_AUC ([2]; MIPE library, mean AUC of VP-MCC cell lines, sheet S2E): 355.337 | Control-VN-MCC ([3]; MIPE library, Control AUC minus VN-MCC AUC (therapeutic window), sheet S2E): -12.0249 | VN-MCC_Avg_AUC ([3]; MIPE library, mean AUC of VN-MCC cell lines, sheet S2E): 436.558 | Control_Avg_AUC ([4]; MIPE library, mean AUC of control cell lines, sheet S2E): 424.533 | Control-MCC ([5]; MIPE library, Control AUC minus MCC AUC (therapeutic window), sheet S2E): 28.5854

CCCCCCCCOc1ccccc1C(=O)Nc1ccc(C(=O)OCC[N+](C)(CC)CC)cc1 [Octylonium bromide]
MCC13_AUC (MCC13 cells (VN-MCC); [6]): 437.863 | MCC26_AUC (MCC26 cells (VN-MCC); NPC library, qHTS dose-response AUC, MCC26): 427.666 | UISO_AUC (UISO cells (VN-MCC); [7]): 389.713 | WAGA_AUC (WAGA cells (VP-MCC); [8]): 419.958 | MKL1_AUC (MKL-1 cells (VP-MCC); [9]): 364.23 | MKL2_AUC (MKL-2 cells (VP-MCC); [10]): 359.851 | HACAT_AUC (HACAT cells; [11]): 466.719 | HEK293T_AUC (HEK293T cells; NPC library, qHTS dose-response AUC, HEK293T control): 439.212 | HEK293T_AUC (HEK293T cells; [12]): 439.213 | NIH3T3_AUC (NIH-3T3 cells; [13]): 470.129 | CRL7250_AUC (CRL-7250 cells; [14]): 483.471 | MCC_Avg_AUC ([1]; NPC library, mean AUC of all 6 MCC cell lines): 399.88 | MCC_Avg_AUC [1, 15]: 399.88 | Control-VP-MCC ([2]; Control AUC minus VP-MCC AUC): 83.5367 | VP-MCC_Avg_AUC [2, 16]: 381.346 | Control-VP-MCC [2, 17]: 83.5367 | Control-VN-MCC ([3]; Control AUC minus VN-MCC AUC): 46.4688 | VN-MCC_Avg_AUC [3, 18]: 418.414 | Control-VN-MCC [3, 19]: 46.4688 | Control_Avg_AUC [4, 20]: 464.883 | Control-MCC [5, 21]: 65.0028

CC(Cc1ccccc1)NCCn1cnc2c1c(=O)n(C)c(=O)n2C (centres unmarked) [Fenethylline hydrochloride]
MCC13_AUC (MCC13 cells (VN-MCC)): 447.432 | MCC26_AUC (MCC26 cells (VN-MCC)): 413.898 | UISO_AUC (UISO cells (VN-MCC)): 437.462 | WAGA_AUC (WAGA cells (VP-MCC)): 435.275 | MKL1_AUC (MKL-1 cells (VP-MCC)): 406.458 | MKL2_AUC (MKL-2 cells (VP-MCC)): 435.518 | HACAT_AUC (HACAT cells): 497.83 | HEK293T_AUC (HEK293T cells): 471.885 | NIH3T3_AUC (NIH-3T3 cells): 480.657 | CRL7250_AUC (CRL-7250 cells): 496.56 | MCC_Avg_AUC [1]: 429.34 | Control-VP-MCC [2]: 60.9825 | VP-MCC_Avg_AUC [2]: 425.75 | Control-VN-MCC [3]: 53.8023 | VN-MCC_Avg_AUC [3]: 432.93 and 432.931 | Control_Avg_AUC [4]: 486.733 | Control-MCC [5]: 57.3924
